The values that follow are results of earlier work, collected in patent publication US20040224916A1 (priority 2003, published 2004).

SMILES strings stand for the structures. Where two headings read alike, the source gives them in different places.

The subject of data set [1] is HIV-1. As to conditions: in vitro, with agents acting at steps other than reverse transcription, including recombinant soluble CD4, castanospermine, recombinant interferon-α.
The conditions of data set [2]: dogs and rhesus monkeys.
The test system of data set [3] is HIV.

On to `Cc1cn([C@H]2C[C@H](N=[N+]=[N-])[C@@H](CO)O2)c(=O)[nH]c1=O` [AZT, 3′-azido, 3′-deoxythymidine], for which, in data set [1], the “antiviral activity in combination” value is listed as “synergistic antiviral activity”.
In the case of `CC(C)OC(=O)[C@H](C)N[P@](=O)(CO[C@H](C)Cn1cnc2c(N)ncnc21)Oc1ccccc1` [GS-7340, 9-[(R)-2-[[(S)-[[(S)-1-(isopropoxycarbonyl)ethyl]amino]phenoxyphosphinyl]methoxy]propyl]adenine], the stability in plasma result in data set [2] is on record as “stable in plasma”. Moreover, in data set [3], the “effectiveness of S-configuration (at phosphorus) diastereomer relative to R-configuration diastereomer” value is given as 10 fold. Besides, the entries for the “effectiveness relative to tenofovir against HIV in culture” value in data set [3] (as stated in b46) and in data set [3] (as stated in b47) were 1000 times and 100 fold, respectively.
